According to the NIST ThermoML archive (doi:10.1021/je900954y):

Key:
[1] = 101 kPa, Liquid
[2] = xn = mol fraction of the nth substance listed; settings: 101 kPa, Liquid

CCCCCCCO [heptan-1-ol]
[1]
Settings | mass density [kg/m3] | viscosity [mPa·s]
298.15 K | 818.9 | 5.914
303.15 K | 815.4 | 5.045
308.15 K | 811.9 | 4.34

CCCCCCCO [heptan-1-ol] + CC(O)CO
[2], x1 = 1
Settings | mass density [kg/m3] | viscosity [mPa·s]
298.15 K | 818.9 | 5.914
303.15 K | 815.4 | 5.045
308.15 K | 811.9 | 4.34

OCCO [1,2-ethanediol]
[1]
Settings | mass density [kg/m3] | viscosity [mPa·s]
298.15 K | 1109.2 | 15.41
303.15 K | 1104.2 | 12.73
308.15 K | 1100.6 | 10.66

CCC(C)O (stereo not drawn) [butan-2-ol]
[1]
Settings | mass density [kg/m3] | viscosity [mPa·s]
298.15 K | 802.4 | 2.999
303.15 K | 798.7 | 2.499
308.15 K | 793.8 | 2.475

CC(O)CO (stereo not drawn) [1,2-propanediol] + CCCCCCCO
[2]
Settings | mass density, 298.15 K [kg/m3] | mass density, 303.15 K [kg/m3] | mass density, 308.15 K [kg/m3] | viscosity, 298.15 K [mPa·s] | viscosity, 303.15 K [mPa·s] | viscosity, 308.15 K [mPa·s]
x2 = 0 | 1033.1 | 1029.9 | 1025.4 | 45.44 | 33.99 | 26.34
x2 = 0.1383 | 980.3 | 976.4 | 972 | 27.34 | 20.69 | 16.05
x2 = 0.3163 | 928.8 | 925 | 920.8 | 15.9 | 12.8 | 9.977
x2 = 0.386 | 912.5 | 908.6 | 904.6 | 13.64 | 10.88 | 8.925
x2 = 0.4049 | 908.3 | 904.4 | 900.4 | 13.19 | 10.75 | 8.567
x2 = 0.4673 | 895.4 | 891.6 | 887.6 | 11.94 | 9.431 | 7.663
x2 = 0.6097 | 869.7 | 866 | 862.2 | 9.882 | 7.655 | 6.373
x2 = 0.7341 | 851 | 847.3 | 843.7 | 8.159 | 6.401 | 5.414
x2 = 0.8294 | 838.5 | 834.9 | 831.3 | 7.132 | 5.815 | 4.963

CC(O)CO (stereo not drawn) [1,2-propanediol]
[1]
Settings | mass density [kg/m3] | viscosity [mPa·s]
298.15 K | 1033.1 | 45.44
303.15 K | 1029.9 | 33.99
308.15 K | 1025.4 | 26.34

CCC(C)O (stereo not drawn) [butan-2-ol] + OCCO
[2]
Settings | mass density, 298.15 K [kg/m3] | mass density, 303.15 K [kg/m3] | mass density, 308.15 K [kg/m3] | viscosity, 298.15 K [mPa·s] | viscosity, 303.15 K [mPa·s] | viscosity, 308.15 K [mPa·s]
x1 = 0.0514 | 1085.8 | 1081.8 | 1078.5 | 14.67 | 12.2 | 10.24
x1 = 0.1049 | 1062.7 | 1059.1 | 1055.6 | 13.78 | 11.58 | 9.795
x1 = 0.1847 | 1029.6 | 1025.9 | 1022.8 | 12.29 | 10.43 | 8.898
x1 = 0.261 | 1000.3 | 996.7 | 993.4 | 10.82 | 9.184 | 7.897
x1 = 0.3516 | 968.3 | 964.6 | 960.9 | 9.089 | 7.76 | 6.681
x1 = 0.4562 | 934.5 | 930.7 | 926.9 | 7.352 | 6.211 | 5.442
x1 = 0.5039 | 920.3 | 916.4 | 912.5 | 6.669 | 5.641 | 4.96
x1 = 0.6639 | 876.9 | 873.1 | 868.9 | 4.971 | 4.182 | 3.803
x1 = 0.7723 | 850.9 | 847.3 | 842.9 | 4.301 | 3.618 | 3.347
x1 = 0.8751 | 828.2 | 824.7 | 820.1 | 3.791 | 3.18 | 3.034
x1 = 1 | 802.4 | 798.7 | 793.8 | 2.999 | 2.499 | 2.475

CC(O)CO (stereo not drawn) [1,2-propanediol] + CCCCCCO
[2]
Settings | mass density, 298.15 K [kg/m3] | mass density, 303.15 K [kg/m3] | mass density, 308.15 K [kg/m3] | viscosity, 298.15 K [mPa·s] | viscosity, 303.15 K [mPa·s] | viscosity, 308.15 K [mPa·s]
x2 = 0 | 1033.1 | 1029.9 | 1025.4 | 45.44 | 33.99 | 26.34
x2 = 0.0771 | 1004.5 | 1000.9 | 996.1 | 33.27 | 24.28 | 20.05
x2 = 0.1213 | 989.9 | 986.2 | 981.6 | 28.44 | 20.82 | 17.27
x2 = 0.2425 | 953.6 | 949.9 | 945.8 | 18.56 | 13.93 | 11.97
x2 = 0.3311 | 930.7 | 927 | 923.1 | 14.38 | 11.28 | 9.627
x2 = 0.5225 | 888.7 | 884.9 | 881.3 | 9.486 | 8.063 | 6.428
x2 = 0.5377 | 885.7 | 881.9 | 878.2 | 9.057 | 7.837 | 6.308
x2 = 0.6309 | 868.9 | 865.1 | 861.5 | 7.625 | 6.725 | 5.322
x2 = 0.7444 | 850.3 | 846.4 | 842.9 | 6.313 | 5.206 | 4.494
x2 = 0.8611 | 833.3 | 829.4 | 826 | 5.324 | 4.61 | 3.935

CCCCCCO [hexan-1-ol]
[1]
Settings | mass density [kg/m3] | viscosity [mPa·s]
298.15 K | 815.4 | 4.643
303.15 K | 811.5 | 3.999
308.15 K | 808.3 | 3.471

CCCCCCO [hexan-1-ol] + CC(O)CO
[2], x1 = 1
Settings | mass density [kg/m3] | viscosity [mPa·s]
298.15 K | 815.4 | 4.643
303.15 K | 811.5 | 3.999
308.15 K | 808.3 | 3.471

OCCO [1,2-ethanediol] + CCC(C)O
[2], x2 = 0
Settings | mass density [kg/m3] | viscosity [mPa·s]
298.15 K | 1109.2 | 15.41
303.15 K | 1104.2 | 12.73
308.15 K | 1100.6 | 10.66
